Results on one compound are retold here after patent US12318452B2, “Degraders of WEE1 kinase” (DANA-FARBER CANCER INSTITUTE, INC., priority 2018, dated 2025).

The test system of one experiment is BT549 and HCC1806 cells. Put plainly: Image-based cell cycle assay in TNBC cell lines. The settings on record: data not shown. Here is the method:
HCC1806, BT549, and Kuramochi cells were maintained in RPMI (Corning®, Corning, NY) supplemented with 10% fetal bovine serum (FBS) (Life Technologies™, Carlsbad, CA) and 1% penicillin/streptomycin (Corning, Corning®, NY). OVCAR8 cells were maintained as above with the addition of 2 mM L-glutamine (Life Technologies™, Carlsbad, CA). MCF10A cells were maintained in a 1:1 mix of DMEM:F12 supplemented with 5% horse serum (Life Technologies™ Carlsbad, CA), 1% penicillin/streptomycin (Corning®, Corning, NY), 20 ng/ml EGF (Peprotech®, Rocky Hill, NJ), 500 ng/ml hydrocortisone (Sigma-Aldrich®, St. Louis, MO), 10 μg/ml insulin (Sigma-Aldrich®, St. Louis, MO), and 100 ng/ml cholera toxin (Sigma-Aldrich®, St. Louis, MO). COV362 cells were maintained in DMEM (Corning®, Corning, NY) supplemented with 10% FBS (Life Technologies™, Carlsbad, CA), 1% penicillin/streptomycin (Corning®, Corning, NY) and 2 mM L-glutamine (Life Technologies™, Carlsbad, CA). The OCE1 cells were maintained in FOMI (Wit-Fo) (PMID: 24303006) supplemented with 25 ng/ml cholera toxin (Sigma-Aldrich®, St. Louis, MO). […]
Fixed cells were imaged with a 10× objective using an Operetta microscope and analyzed using the Columbus image data storage and analysis system (PerkinElmer®, Waltham, MA). […] The average LDR, EdU and phospho-histone H3 intensities within the nuclear masks were determined. […]

A further experiment deals with Wee1 (Homo sapiens, UniProt P30291). Put plainly: Wee1 degradation immunoblot in OVCAR8 cells. The experiment is classed as cell-based. On the set-up: endogenous in cells. The settings on record: 5 hours. The protocol: Whole cell lysates for immunoblotting were prepared by pelleting cells from each cell line at 4° C. (300 g) for 5 minutes. The resulting cell pellets were washed 1× with ice-cold PBS and then resuspended in RIPA lysis buffer (Sigma, cat #R0278) supplemented with protease and phosphatase inhibitor tablets (Roche cat #4906845001). Lysates were clarified at 14,000 rpm for 15 minutes at 4° C. prior to quantification by BCA assay (Pierce™, cat #23225). Whole cell lysates were loaded into Bolt 4-12% Bis-Tris Gels (Thermo Fisher, cat #NW04120BOX) and separated by electrophoreses at 95 V for 1.5 hours. The gels were transferred to a nitrocellulose membrane using the iBlot® Gel Transfer at P3 for 7 minutes (Thermo Fisher, cat #IB23001) and then blocked for 1 hour at room temperature in Odyssey® blocking buffer (LICOR® Biosciences, cat #927-50010). Membranes were probed using antibodies against the relevant proteins at 4° C. overnight in 20% Odyssey® Blocking Buffer in 1×TBST. […]
Wee1, sequence (P30291 whole entry): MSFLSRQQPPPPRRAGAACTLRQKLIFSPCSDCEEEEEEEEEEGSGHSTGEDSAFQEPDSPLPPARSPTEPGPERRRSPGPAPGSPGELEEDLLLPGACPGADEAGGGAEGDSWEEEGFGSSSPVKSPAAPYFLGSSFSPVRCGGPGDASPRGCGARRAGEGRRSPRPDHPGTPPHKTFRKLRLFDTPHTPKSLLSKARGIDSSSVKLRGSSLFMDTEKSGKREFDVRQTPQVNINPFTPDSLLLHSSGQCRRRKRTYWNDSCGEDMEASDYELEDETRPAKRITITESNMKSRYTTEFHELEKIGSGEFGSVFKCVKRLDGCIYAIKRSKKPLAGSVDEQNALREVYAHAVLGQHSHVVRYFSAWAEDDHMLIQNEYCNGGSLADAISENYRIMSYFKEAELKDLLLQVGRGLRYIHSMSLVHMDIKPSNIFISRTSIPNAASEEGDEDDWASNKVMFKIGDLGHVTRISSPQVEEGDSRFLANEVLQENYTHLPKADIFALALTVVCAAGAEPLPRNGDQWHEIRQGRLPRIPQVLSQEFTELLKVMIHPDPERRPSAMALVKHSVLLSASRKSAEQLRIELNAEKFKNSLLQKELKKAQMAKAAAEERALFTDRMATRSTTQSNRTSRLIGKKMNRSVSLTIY
Compound 13 was profiled in three different ovarian cancer cell lines OVCAR8, COV362, and Kuramochi (FIG. 6C-FIG. 6E). […] After confirming that Compound 13 degraded Wee1 in OVCAR8 cells, with maximal degradation observed at a 100 nM treatment (FIG. 11A), the efficacy of compound 13 and Olaparib combination treatments were evaluated.
Background: A western blot detects proteins with antibodies after separation by electrophoresis.

SMILES strings stand for the structures.

In the case of `C=CCn1c(=O)c2cnc(Nc3ccc(N4CCN(CCCNc5cccc6c5C(=O)N(C5CCC(=O)NC5=O)C6=O)CC4)cc3)nc2n1-c1cccc(C(C)(C)O)n1` (centres unmarked) [Compound 13, 4-((3-(4-(4-((2-allyl-1-(6-(2-hydroxypropan-2-yl)pyridin-2-yl)-3-oxo-2,3-dihydro-1H-pyrazolo[3,4-d]pyrimidin-6-yl)amino)phenyl)piperazin-1-yl)propyl)amino)-2-(2,6-dioxopiperidin-3-yl)isoindoline-1,3-dione], the “Changes in mitotic cell number” value in the experiment with BT549 and HCC1806 cells is reported as “greater changes in mitotic cell number than AZD1775”. Also, the “Concentration giving maximal Wee1 degradation” value on Wee1 was 100 nM.
